In paper PMC8453635, “Piperidine Azasugars Bearing Lipophilic Chains: Stereoselective Synthesis and Biological Activity as Inhibitors of Glucocerebrosidase (GCase)” (The Journal of Organic Chemistry, 2021):
“Also recorded” adds a separate entry of the source.

Columns and labels:
[1] = system: β-N-acetylglucosaminidase EC 3.2.1.52; assay: Commercial glycosidase screening; type: biochemical
Description: (§1) Preliminary biological evaluation of compounds 14 and 15 (at 100 μM inhibitor concentration) was performed toward a panel of 12 commercial glycosidases (α-L-fucosidase EC 3.2.1.51 from Homo sapiens, α-galactosidase EC 3.2.1.22 from coffee beans, β-galactosidases EC 3.2.1.23 from Escherichia coli and Aspergillus oryzae, α-glucosidases EC 3.2.1.20 from yeast and rice, amyloglucosidase EC 3.2.1.3 from Aspergillus niger, β-glucosidase EC 3.2.1.21 from almonds, α-mannosidase EC 3.2.1.24 from Jack beans, β-mannosidase EC 3.2.1.25 from snail, and β-N-acetylglucosaminidases EC 3.2.1.52 from Jack beans and bovine kidney).
(§2) The percentage (%) of inhibition for compounds 14 and 15 toward the corresponding glycosidase was determined by quadruplicate in the presence of 100 μM of the inhibitor on the well. Each enzymatic assay (final volume 0.12 mL) contains 0.01–0.5 units/mL of the enzyme (with previous calibration) and 4.2 mM aqueous solution of the appropriate p-nitrophenyl glycopyranoside (substrate) buffered to the optimal pH of the enzyme. Enzyme and inhibitor were pre-incubated for 5 min at rt, and the reaction started by addition of the substrate. After 20 min of incubation at 37 °C, the reaction was stopped by addition of 0.1 mL of sodium borate solution (pH 9.8). The p-nitrophenolate formed was measured by visible absorption spectroscopy at 405 nm (Asys Expert 96 spectrophotometer). Under these conditions, the p-nitrophenolate released led to optical densities linear with both reaction time and concentration of the enzyme.
(§3) Biological screening towards commercial glycosidases
(§4) α-L-fucosidase EC 3.2.1.51
(§5) α-galactosidase EC 3.2.1.22
(§6) β-galactosidase EC 3.2.1.23
(§7) α-glucosidase EC 3.2.1.20
(§8) amyloglucosidase EC 3.2.1.3
(§9) β-glucosidase EC 3.2.1.21
(§10) α-mannosidase EC 3.2.1.24
(§11) β-mannosidase EC 3.2.1.25
(§12) β-N-acetylglucosaminidase EC 3.2.1.52
(§13) “-“: no inhibition (or less than 15%) detected.

[2] = target: T1, β-galactosidase EC 3.2.1.23 (Escherichia coli, UniProt P00722); assay: Commercial glycosidase screening; type: biochemical; conditions: read-out: % Inhibition at 0.1 mM
T1 construct: purchased
Description: as §1, §2, §3, §4, §5, §6, §7, §8, §9, §10, §11, §12, §13

[3] = system: α-glucosidase EC 3.2.1.20; assay: Commercial glycosidase screening; type: biochemical
Description: as §1, §2, §3, §4, §5, §6, §7, §8, §9, §10, §11, §12, §13

[4] = target: T2, β-galactosidase EC 3.2.1.23 (Aspergillus oryzae, UniProt Q2UCU3); assay: Commercial glycosidase screening; type: biochemical; conditions: read-out: % Inhibition at 0.1 mM
T2 construct: purchased
Description: as §1, §2, §3, §4, §5, §6, §7, §8, §9, §10, §11, §12, §13

[5] = target: T3, GCase in fibroblasts bearing the L444P/L444P mutations (Homo sapiens, UniProt P04062, L483P); assay: Pharmacological chaperoning activity in L444P/L444P Gaucher fibroblasts; type: cell-based; conditions: for cell viability: 50 µM, 4 days; for GCase enzymatic activity rescue: 4 days incubation, 5 nM to 10 μM
T3 construct: fibroblasts derived from Gaucher patients bearing the N370S/RecNcil and L444P/L444P mutations; host or cells: fibroblasts from Gaucher disease patients, L444P/L444P
T3 sequence (P04062 40-536 L483P): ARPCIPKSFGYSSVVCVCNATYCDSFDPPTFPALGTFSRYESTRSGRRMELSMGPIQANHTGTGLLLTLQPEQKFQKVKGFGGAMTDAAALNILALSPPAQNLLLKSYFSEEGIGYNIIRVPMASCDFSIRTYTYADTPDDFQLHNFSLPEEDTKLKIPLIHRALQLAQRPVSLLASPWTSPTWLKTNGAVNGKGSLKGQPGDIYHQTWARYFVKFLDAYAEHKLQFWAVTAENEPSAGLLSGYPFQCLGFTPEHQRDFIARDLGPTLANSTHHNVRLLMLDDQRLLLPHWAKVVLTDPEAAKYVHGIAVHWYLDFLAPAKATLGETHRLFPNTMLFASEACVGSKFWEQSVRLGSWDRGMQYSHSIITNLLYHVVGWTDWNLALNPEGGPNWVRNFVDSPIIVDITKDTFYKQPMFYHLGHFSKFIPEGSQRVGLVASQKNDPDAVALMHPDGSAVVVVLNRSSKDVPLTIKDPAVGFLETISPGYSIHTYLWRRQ
Description: The ability of compounds 14 and 15 to enhance the activity of GCase after incubation (4 days) with fibroblasts bearing the selected mutations was evaluated. The experiments were performed using fibroblasts derived from Gaucher patients bearing the N370S/RecNcil and L444P/L444P mutations (see the Supporting Information section).
Fibroblasts with the N370S/RecNcil (or L444P/L444P) mutation from Gaucher disease patients were obtained from the “Cell line and DNA Biobank from patients affected by Genetic Diseases” (Gaslini Hospital, Genova, Italy). Fibroblast cells (15.0 × 10^4) were seeded in T25 flasks with DMEM supplemented with fetal bovine serum (10%), penicillin/streptomycin (1%), and glutamine (1%) and incubated at 37 °C with 5% CO2 for 24 h. The medium was removed, and fresh medium containing the compounds (14, 15 and 33·HCl) was added to the cells and incubated for 4 days. The medium was removed, and the cells were washed with PBS and detached with trypsin to obtain cell pellets, which were washed four times with PBS, frozen, and lysed by sonication in water. Enzyme activity was measured as reported above. Reported data are mean S.D. (n = 2).
Figure S52. Fibroblasts derived from GD patients bearing L444P/L444P mutations were incubated without (control, ctrl) or with 7 different concentrations (5 nM, 10 nM, 50 nM, 100 nM, 1 µM, 10 µM, 50 µM) of compounds 14 or 15. After 4 days, the flasks containing cells incubated with 50 µM […]
other concentrations, the GCase activity was determined in lysates from treated fibroblasts. Reported data are mean S.D. (n=2).
(also on this page, place not known: beta glucosidase activity (nmol/mg/h) beta glucosidase activity (nmol/mg/h))

T2 sequence (Q2UCU3 19-1005): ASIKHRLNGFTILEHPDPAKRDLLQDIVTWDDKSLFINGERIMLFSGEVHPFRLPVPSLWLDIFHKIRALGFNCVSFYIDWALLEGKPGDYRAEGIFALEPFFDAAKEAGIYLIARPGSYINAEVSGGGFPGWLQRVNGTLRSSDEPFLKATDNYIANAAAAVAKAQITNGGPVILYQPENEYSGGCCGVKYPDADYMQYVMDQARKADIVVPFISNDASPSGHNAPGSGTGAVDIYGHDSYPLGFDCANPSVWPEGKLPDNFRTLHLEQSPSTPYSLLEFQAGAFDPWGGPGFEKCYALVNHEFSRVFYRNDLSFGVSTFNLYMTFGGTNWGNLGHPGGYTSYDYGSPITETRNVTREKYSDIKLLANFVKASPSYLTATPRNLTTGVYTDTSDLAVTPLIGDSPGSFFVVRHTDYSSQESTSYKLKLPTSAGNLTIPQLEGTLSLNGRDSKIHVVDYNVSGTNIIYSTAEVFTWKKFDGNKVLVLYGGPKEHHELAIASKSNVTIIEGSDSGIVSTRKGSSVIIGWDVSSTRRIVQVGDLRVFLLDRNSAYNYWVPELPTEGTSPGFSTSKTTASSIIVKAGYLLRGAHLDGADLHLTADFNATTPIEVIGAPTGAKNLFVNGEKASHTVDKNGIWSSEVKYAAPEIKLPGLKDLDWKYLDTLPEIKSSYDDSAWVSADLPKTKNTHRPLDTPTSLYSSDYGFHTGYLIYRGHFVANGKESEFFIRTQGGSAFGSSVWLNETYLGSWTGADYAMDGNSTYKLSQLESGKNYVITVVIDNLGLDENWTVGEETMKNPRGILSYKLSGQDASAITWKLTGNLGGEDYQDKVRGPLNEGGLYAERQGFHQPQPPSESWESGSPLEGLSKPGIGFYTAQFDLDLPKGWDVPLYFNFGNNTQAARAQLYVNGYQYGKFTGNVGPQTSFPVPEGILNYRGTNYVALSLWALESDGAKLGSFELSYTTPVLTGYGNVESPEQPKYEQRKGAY
T1 sequence (P00722 2-1024): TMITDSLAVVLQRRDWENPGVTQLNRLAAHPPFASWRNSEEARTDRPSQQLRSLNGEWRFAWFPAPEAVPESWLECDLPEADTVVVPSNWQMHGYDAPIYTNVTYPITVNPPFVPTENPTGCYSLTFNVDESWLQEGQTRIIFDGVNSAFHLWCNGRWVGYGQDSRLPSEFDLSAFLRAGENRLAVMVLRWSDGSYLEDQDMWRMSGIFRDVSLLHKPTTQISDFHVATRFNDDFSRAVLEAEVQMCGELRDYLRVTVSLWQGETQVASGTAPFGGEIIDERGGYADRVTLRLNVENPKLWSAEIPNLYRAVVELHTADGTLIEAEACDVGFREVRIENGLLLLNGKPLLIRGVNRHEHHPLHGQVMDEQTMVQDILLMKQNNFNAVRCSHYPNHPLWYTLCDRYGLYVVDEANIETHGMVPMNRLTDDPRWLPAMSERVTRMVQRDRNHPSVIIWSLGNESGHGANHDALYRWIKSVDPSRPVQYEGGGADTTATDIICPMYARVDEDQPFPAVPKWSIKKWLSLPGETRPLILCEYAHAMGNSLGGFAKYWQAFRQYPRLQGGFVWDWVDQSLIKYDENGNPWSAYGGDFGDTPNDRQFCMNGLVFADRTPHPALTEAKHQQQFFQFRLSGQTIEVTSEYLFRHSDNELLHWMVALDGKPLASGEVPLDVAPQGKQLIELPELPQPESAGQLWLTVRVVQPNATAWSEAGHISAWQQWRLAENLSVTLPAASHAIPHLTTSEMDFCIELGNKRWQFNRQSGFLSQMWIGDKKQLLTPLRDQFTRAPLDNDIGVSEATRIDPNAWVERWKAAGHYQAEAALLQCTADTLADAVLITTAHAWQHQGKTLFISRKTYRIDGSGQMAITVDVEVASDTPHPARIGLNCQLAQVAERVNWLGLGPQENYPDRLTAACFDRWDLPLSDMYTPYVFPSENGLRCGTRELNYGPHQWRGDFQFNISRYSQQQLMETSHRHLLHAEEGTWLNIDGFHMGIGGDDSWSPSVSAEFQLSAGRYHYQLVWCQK

SMILES | % Inhibition at 0.1 mM ([1]; Jack beans) | % Inhibition at 0.1 mM ([1]; bovine kidney) | inhibition at 100 µM [2] [%] | % Inhibition at 0.1 mM ([3]; rice) | % Inhibition at 0.1 mM ([3]; yeast) | inhibition at 100 µM [4] [%] | cell viability [5] | GCase enzymatic activity rescue [5]
CCCCCCCC[C@H]1[C@@H](O)[C@H](O)[C@H](O)CN1CCCCCCCC [compound 14, (2S,3R,4R,5R)-1,2-Dioctylpiperidine-3,4,5-triol] | - (“-“: no inhibition (or less than 15%) detected.) | - (“-“: no inhibition (or less than 15%) detected.) | < 15 | - (“-“: no inhibition (or less than 15%) detected.) | - (“-“: no inhibition (or less than 15%) detected.) | < 15 | low cell viability | no enzymatic activity rescue; also recorded: no GCase activity enhancements
CCCCCCCC[C@@H]1[C@@H](O)[C@H](O)[C@H](O)CN1CCCCCCCC [compound 15, (2R,3R,4R,5R)-1,2-Dioctylpiperidine-3,4,5-triol] | - (“-“: no inhibition (or less than 15%) detected.) | - (“-“: no inhibition (or less than 15%) detected.) | < 15 | - (“-“: no inhibition (or less than 15%) detected.) | - (“-“: no inhibition (or less than 15%) detected.) | < 15 | low cell viability | no enzymatic activity rescue; also recorded: no GCase activity enhancements
